From US8114994B2, “2′ and 3′-substituted cyclobutyl nucleoside analogs for the treatment viral infections and abnormal cellular proliferation” (Emory University, priority 2004, dated 2012)

Tests used:
HIV RT (M/I) = target: T1, HIV RT (M/I) (Human immunodeficiency virus type 1 group M subtype B, UniProt P04585, M771I); experiment: Inhibition of HIV-RT from viral lysate, M184I mutant (M/I); format: biochemical; details: for % Inhibition / cpm/ml: M/I RT; for IC50: HIV RT (M/I) from viral lysates from infected PBMC, triplicates from one experiment
T1 construct: from tissue; host or cells: HIV viral lysate (M184I mutant strain)

Recombinant HIV RT (WT) = target: T2, Recombinant HIV RT (WT) (Human immunodeficiency virus type 1 group M subtype B, UniProt P04585); experiment: RT assay, recombinant wild type HIV-RT (cell-free); format: biochemical; details: triplicates from one experiment, read-out: Inhibition of RT Activity (IC50)
T2 construct: was evaluated against recombinant wild type HIV-RT
Experimental: [drawing 29] was evaluated against recombinant wild type HIV-RT, as well as the M184I and M184V mutants, according to the RT assay described in Eriksson B F, Chu C K, Schinazi R F; Antimicrob. Agents Chemother. 1989, 33, 1729-1734. The results are tabulated in Tables 2-5 and depicted in FIGS. 1-3.

[1] = target: T3, HIV-RT from viral-lysate (WT) (Human immunodeficiency virus type 1 group M subtype B, UniProt P04585); experiment: Inhibition of HIV-RT from viral-lysate (WT); format: biochemical; details: for % Inhibition / cpm/ml: RT from viral lysate (WT); for IC50: HIV RT (WT) from viral lysates from infected PBMC, triplicates from one experiment
T3 construct: from tissue; host or cells: HIV viral lysate

HIV RT (M/V) = target: T4, HIV RT (M/V) (Human immunodeficiency virus type 1 group M subtype B, UniProt P04585, M771V); experiment: Inhibition of HIV-RT from viral-lysate (M/V), M184V mutant; format: biochemical; details: for % Inhibition / cpm/ml: RT from viral lysate (M/V); for IC50: HIV RT (M/V) from viral lysates from infected PBMC, triplicates from one experiment
T4 construct: from tissue; host or cells: HIV viral lysate (M184V mutant strain)

HIV [2] = experiment: Anti-HIV activity in PBM cells; format: cell-based; details: Human immunodeficiency virus 1, PBMC
Experimental: (§1) The cyclobutyl nucleoside analogs (CBN) were evaluated for their anti-HIV activity and cytotoxicity in PBM, CEM and Vero cells, according to known procedures.
(§2) The following cyclobutyl nucleoside compounds were evaluated for their anti-HIV activity and cytotoxicity in PBM cells, according to standard procedures.

Vero cells = experiment: Toxicity in Vero cells; format: cell-based; details: Chlorocebus sabaeus
Experimental: as §1, §2

CEM cells = experiment: Toxicity in CEM cells; format: cell-based; details: Homo sapiens, CCRF-CEM
Experimental: as §1, §2

HIV [3] = experiment: Anti-HIV activity in PBM cells; format: cell-based; details: Example 114, refers to Table 6
PBM cells = experiment: Toxicity in PBM cells; format: cell-based; details: PBMC
Experimental: as §1, §2

HIV [4] = details: after 28 days treatment; preliminary human data; cited from earlier work

In the case of “5-fluoro-1-[cis-3-(hydroxymethyl)-cyclobutyl]-cytosine triphosphate [DLS183-TP]”, the “% Inhibition” value (HIV RT (M/I); 0.1 μM) is reported as 0.01%, the cpm/ml (HIV RT (M/I); 0.1 μM) is reported as 407041.44 cpm/ml and the “% Inhibition” value (HIV RT (M/I); 1 μM) is reported as 20%. For the same molecule, the cpm/ml (HIV RT (M/I); 1 μM) was 272130.486 cpm/ml, the “% Inhibition” value (HIV RT (M/I); 10 μM) was 53% and the cpm/ml (HIV RT (M/I); 10 μM) was 160719.12 cpm/ml. For the same molecule, the IC50 (HIV RT (M/I)) was 6.06 µM, the IC50 (Recombinant HIV RT (WT)) was 4.74 µM and the “% Inhibition” value ([1]; 0.1 μM) was 0.01%. The cpm/ml ([1]; 0.1 μM) was 280781.826 cpm/ml, the “% Inhibition” value ([1]; 1 μM) was 18% and the cpm/ml ([1]; 1 μM) was 228126.312 cpm/ml. The “% Inhibition” value ([1]; 10 μM) was 51%, the cpm/ml ([1]; 10 μM) was 134616.36 cpm/ml and the IC50 [1] was 6.85 µM. For the same molecule, the “% Inhibition” value (HIV RT (M/V); 0.1 μM) was 5%, the cpm/ml (HIV RT (M/V); 0.1 μM) was 297603.432 cpm/ml and the “% Inhibition” value (HIV RT (M/V); 1 μM) was 22%. For the same molecule, the cpm/ml (HIV RT (M/V); 1 μM) was 245062.692 cpm/ml, the “% Inhibition” value (HIV RT (M/V); 10 μM) was 51% and the cpm/ml (HIV RT (M/V); 10 μM) was 152688.27 cpm/ml. It also gave an IC50 (HIV RT (M/V)) of 6.91 µM.
For `Nc1ccn([C@@H]2CS[C@H](COP(=O)(O)OP(=O)(O)OP(=O)(O)O)O2)c(=O)n1` [Compound 3TC-TP, reference compound], the “% Inhibition” value (HIV RT (M/I); 0.1 μM) was 0.03%, the cpm/ml (HIV RT (M/I); 0.1 μM) was 329435.346 cpm/ml and the “% Inhibition” value (HIV RT (M/I); 1 μM) was 0.03%. The cpm/ml (HIV RT (M/I); 1 μM) was 329605.62 cpm/ml, the “% Inhibition” value (HIV RT (M/I); 10 μM) was 13% and the cpm/ml (HIV RT (M/I); 10 μM) was 298628.406 cpm/ml. The IC50 (HIV RT (M/I)) was over 10 µM, the IC50 (Recombinant HIV RT (WT)) was 2.99 µM and the “% Inhibition” value ([1]; 0.1 μM) was 3.1%. For the same molecule, the cpm/ml ([1]; 0.1 μM) was 268420.2 cpm/ml, the “% Inhibition” value ([1]; 1 μM) was 22% and the cpm/ml ([1]; 1 μM) was 215883.012 cpm/ml. For the same molecule, the “% Inhibition” value ([1]; 10 μM) was 55%, the cpm/ml ([1]; 10 μM) was 124341.312 cpm/ml and the IC50 [1] was 6.53 µM. The “% Inhibition” value (HIV RT (M/V); 0.1 μM) was 13%, the cpm/ml (HIV RT (M/V); 0.1 μM) was 270239.712 cpm/ml and the “% Inhibition” value (HIV RT (M/V); 1 μM) was 7%. The cpm/ml (HIV RT (M/V); 1 μM) was 288267.666 cpm/ml, the “% Inhibition” value (HIV RT (M/V); 10 μM) was 0.01% and the cpm/ml (HIV RT (M/V); 10 μM) was 336946.272 cpm/ml. For the same molecule, the IC50 (HIV RT (M/V)) was over 10 µM.
`O=c1ccn([C@@H]2C[C@H](CO)C2F)c(=O)[nH]1` (stereo partly drawn) [DLS-194] gave an EC50 (HIV [2]) of over 100 µM.
Work on `Nc1ccn([C@@H]2C[C@H](CO)C2F)c(=O)n1` (stereo partly drawn) [DLS-195] yielded an EC50 (HIV [2]) of over 100 µM.
`O=c1[nH]c(=O)n([C@@H]2C[C@H](CO)C2F)cc1F` (stereo partly drawn) [DLS-196] showed an EC50 (HIV [2]) of over 100 µM.
`OC[C@H]1C[C@@H](n2cnc3c(Cl)ncnc32)C1F` (stereo partly drawn) [DLS-197] showed an EC50 (HIV [2]) of over 100 µM.
In the case of `Nc1ncnc2c1ncn2[C@@H]1C[C@H](CO)C1F` (stereo partly drawn) [DLS-206], the IC50 (Vero cells) is reported as over 100 µM, the IC50 (CEM cells) is reported as over 100 µM and the EC50 (HIV [2]) is reported as 50.4 µM. The EC90 (HIV [2]) was over 100 µM, the “inhibition of HIV-RT (in words)” value (HIV [3]) was “significant inhibition” and the IC50 (PBM cells) was over 100 µM.
With `Nc1ncnc2c1ncn2[C@@H]1C[C@H](CO)C1O` (stereo partly drawn) [DLS-207] the IC50 (Vero cells) was 97.8 µM, the IC50 (CEM cells) was over 100 µM and the EC50 (HIV [2]) was 33.7 µM. The EC90 (HIV [2]) was 60.1 µM, the “inhibition of HIV-RT (in words)” value (HIV [3]) was “significant inhibition” and the IC50 (PBM cells) was 13.8 µM.
In the case of `O=c1[nH]c(=O)n(C[C@@H]2C[C@H](CO)C2O)cc1F` (stereo partly drawn) [DLS-210], the EC50 (HIV [2]) is reported as over 100 µM.
Work on `Nc1ncnc2c1ncn2C[C@H]1C[C@H](CO)C1` [DLS-211] yielded an EC50 (HIV [2]) of over 100 µM.
`Nc1ncnc2c1ncn2CC1CC(CO)C1` (stereo not drawn) [DLS-212] showed an EC50 (HIV [2]) of over 100 µM.
Work on `Nc1nc(O[C@@H]2C[C@H](CO)C2F)ncc1F` (stereo partly drawn) [DLS-221] yielded an EC50 (HIV [2]) of over 100 µM.
Work on `Nc1nc(=O)n([C@@H]2C[C@H](CO)C2F)cc1F` (stereo partly drawn) [DLS-222] yielded an EC50 (HIV [2]) of over 100 µM.
In the case of `Nc1nc2c(ncn2[C@@H]2C[C@H](CO)C2F)c(=O)[nH]1` (stereo partly drawn) [DLS-223], the IC50 (Vero cells) is reported as over 100 µM, the IC50 (CEM cells) is reported as over 100 µM and the EC50 (HIV [2]) is reported as 27.7 µM. The EC90 (HIV [2]) was over 100 µM, the “inhibition of HIV-RT (in words)” value (HIV [3]) was “significant inhibition” and the IC50 (PBM cells) was over 100 µM.
For `Nc1nc2c(ncn2[C@@H]2CC(CO)C2CO)c(=O)[nH]1` (stereo partly drawn) [lobucavir, (R)-9-[2,3-Bis(hydroxymethyl)cyclobutyl]guanine], the “reductions in HIV viral load” value (HIV [4]) is listed as at most 1.5 log.
